US9624269B2, “Peptide inhibitors of BACE1” (GENENTECH, INC., priority 2011, dated 2017)
Positions of bridges follow the written chain, without caps; N, C: chain ends. Residues, ends and D or L forms follow the SMILES beside them.

Columns and labels:
human BACE1 (rhBACE1) [1] = molecular target: T1, human BACE1 (rhBACE1) (Homo sapiens, UniProt P56817); experiment: BACE1 fluorescence polarization (FP) competition binding assay with 5-TAMRA-BACE020 probe; details: for IC50: competition with 3 nM 5-TAMRA-BACE020, 12 nM rhBACE1, pH 4.4
Method: BACE1 Fluorescence Polarization Competition Binding Assay.
BACE1 binding assays were carried out in a final volume of 10 μL per well in black 384-well microplates (Proxiplate-Plus; Perkin Elmer, Waltham, Mass.). A standard binding reaction, initiated by the addition of 5 μL 2× enzyme to 2.5 μL of 4× binding probe and […] of 4× inhibitor, contained 12 nM rhBACE1, 3 nM 5-TAMRA-[…] (SEQ ID NO: 16) (5-TAMRA-BACE020), 50 mM NaOAc, pH 4.4 with 0.1% CHAPS. The reaction was permitted to proceed towards equilibrium for 2 h at ambient temperature prior to fluorescence polarization measurement using Envision (Perkin Elmer). The parallel and perpendicular fluorescent emissions measured in each well at 595 nm (excitation 531 nm polarized light) were used to determine the milli-polarization level (mP) using the following formula: mP=1000*(S-G*P)/(S+G*P) where S=parallel emission, P=perpendicular emission and G=0.65. The mP value in each well was plotted as a function of inhibitor concentration and the 50% inhibition (IC50) values were determined using a nonlinear least squares fit of the data to a four parameter equation using Prism 5.0 software (GraphPad Software, San Diego, Calif.). 5-TAMRA-labeled BACE020 was purchased from American Peptide Company, Inc (Sunnyvale, Calif.) and solubilized in DMSO to 100 mM for storage.
The affinities of BACE1 peptide ligands were measured using the abovementioned competition binding FP assay for determining IC50 values with serially diluted peptides. A Caliper assay was used to measure the inhibition of BACE1 enzymatic activity by peptide ligands. […] Furthermore, the IC50 values measured by the Caliper assay for peptides BACE017-021 and BACE025-028 are consistent with those measured by the HTRF assay.
Target sequence in this assay (P56817 46-501): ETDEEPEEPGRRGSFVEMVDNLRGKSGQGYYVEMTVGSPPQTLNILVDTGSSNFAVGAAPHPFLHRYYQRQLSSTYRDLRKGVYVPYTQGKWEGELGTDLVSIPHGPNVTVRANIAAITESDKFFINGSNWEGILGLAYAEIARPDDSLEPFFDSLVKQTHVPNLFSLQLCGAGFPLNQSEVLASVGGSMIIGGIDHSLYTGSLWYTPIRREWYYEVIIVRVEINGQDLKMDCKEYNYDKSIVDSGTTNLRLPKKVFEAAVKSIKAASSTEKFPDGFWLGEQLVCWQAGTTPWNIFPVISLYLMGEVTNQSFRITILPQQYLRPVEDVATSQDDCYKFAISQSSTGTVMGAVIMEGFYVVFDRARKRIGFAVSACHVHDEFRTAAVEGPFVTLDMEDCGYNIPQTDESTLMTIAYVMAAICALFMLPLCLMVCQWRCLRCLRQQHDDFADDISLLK

human BACE1 (rhBACE1) [2] = molecular target: T1, human BACE1 (rhBACE1); experiment: Caliper BACE1 activity assay (microfluidic capillary electrophoresis); assay type: biochemical; design: containing human BACE1 (extracellular domain); details: for IC50: 12 nM rhBACE1, 1 μM FAM-substrate, pH 4.4
Method: An MCE assay reactions can be carried out in a standard enzymatic reaction, initiated by the addition of substrate to enzyme and 4× compound, containing human BACE1 (extracellular domain), amyloid precursor protein beta secretase active site peptide (FAM-[…]-CONH2 (SEQ ID NO: 20)), 50 mM NaOAc pH 4.4 and 0.1% CHAPS. After incubation for 60 minutes at ambient temperature, the product and substrate in each reaction is separated using a 12-sipper microfluidic chip analyzed on an LC3000® (both, Caliper Life Sciences). The separation of product and substrate is optimized by choosing voltages and pressure using the manufacturer's optimization software. Substrate conversion is calculated from the electrophoregram using HTS Well Analyzer software (Caliper Life Sciences).
BACE1, BACE2 and Cathepsin D Activity Assay Using Microfluidic Capillary Electrophoresis (MCE).
BACE1, BACE2, and Cathepsin D reactions were carried out in a final volume of 20 μl per well in a 384-well microplate using a Caliper LabChip 3000 (Hopkinton, Mass.). A standard enzymatic reaction, initiated by the addition of 10 μ12× substrate to 5 μl of 4× enzyme and 5 μl of 4× peptide or small molecule inhibitor, contained 12 nM rhBACE1, 1 μM FAM-[…]-amide (SEQ ID NO: 20), 50 mM NaOAc, pH 4.4, 0.1% CHAPS. The same reaction conditions were used for rhBACE2 (5 nM) and Cathepsin D (6 nM) (Cat. No. 219394; EMD Biosciences, San Diego, Calif.). After incubation for 60 min at room temperature, the product and substrate in each reaction were separated using a 12-sipper microfluidic chip. Separation of product and substrate was optimized by choosing voltages and pressure using the Caliper Optimizer software. The separation buffer contained 100 mM HEPES, pH 7.2, 0.015% Brij-35, 0.1% Coating Reagent #3, 10 mM EDTA and 5% DMSO. The separation conditions used a downstream voltage of −500 V, an upstream voltage of −2250 V, and a screening pressure of −1.2 psi. The product and substrate fluorescence was excited at 488 nm and detected at 530 nm. Substrate conversion was calculated from the electrophoregram using the Caliper HTS Well Analyzer software.
Target sequence in this assay (P56817 46-457 limits assumed): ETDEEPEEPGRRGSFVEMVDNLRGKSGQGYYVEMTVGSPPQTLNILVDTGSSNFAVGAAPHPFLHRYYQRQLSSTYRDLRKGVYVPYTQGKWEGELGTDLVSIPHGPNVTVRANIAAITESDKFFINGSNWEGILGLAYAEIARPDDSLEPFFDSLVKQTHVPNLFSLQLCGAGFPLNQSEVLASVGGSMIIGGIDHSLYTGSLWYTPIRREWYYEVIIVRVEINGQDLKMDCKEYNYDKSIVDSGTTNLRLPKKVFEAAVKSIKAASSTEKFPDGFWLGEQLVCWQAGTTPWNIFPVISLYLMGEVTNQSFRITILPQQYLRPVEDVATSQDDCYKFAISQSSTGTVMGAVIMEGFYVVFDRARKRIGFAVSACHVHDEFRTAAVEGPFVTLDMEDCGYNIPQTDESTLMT

CC[C@H](C)[C@@H]1NC(=O)CNC(=O)[C@H](CC(C)C)NC(=O)[C@H](CC(C)C)NC(=O)[C@H](CCCNC(=N)N)NC(=O)[C@@H](NC(=O)[C@H](Cc2ccc(O)cc2)NC(=O)[C@H](CCSC)NC(=O)[C@H](CO)NC(=O)[C@H](CCC(=O)O)NC(=O)[C@H](CCC(=O)O)NC(C)=O)CSSC[C@@H](C(=O)NCC(N)=O)NC(=O)CNC1=O [BACE029] (Ac-EESMYCRLLGIGCG-NH2; disulfide 6-13)
IC50 (human BACE1 (rhBACE1) [1]): 12 nM | IC50 (human BACE1 (rhBACE1) [2]): 13 ± 8 nM

CC[C@H](C)[C@@H]1NC(=O)CNC(=O)[C@H](CC(C)C)NC(=O)[C@H](CC(C)C)NC(=O)[C@H](CCCNC(=N)N)NC(=O)[C@@H](NC(=O)[C@H](Cc2ccc(O)cc2)NC(=O)[C@H](CCSC)NC(=O)[C@H](CO)NC(C)=O)CSSC[C@@H](C(=O)NCC(N)=O)NC(=O)CNC1=O [BACE031] (Ac-SMYCRLLGIGCG-NH2; disulfide 4-11)
weakening of affinity relative to BACE020 (human BACE1 (rhBACE1) [1]; FP binding assay): 3-4 fold | weakening of inhibitory activity relative to BACE020 (human BACE1 (rhBACE1) [2]; Caliper activity assay): 3-4 fold

CC[C@H](C)[C@@H]1NC(=O)CNC(=O)[C@H](CC(C)C)NC(=O)[C@H](CC(C)C)NC(=O)[C@H](CCCNC(=N)N)NC(=O)[C@@H](NC(=O)[C@H](Cc2ccc(O)cc2)NC(=O)[C@H](CCSC)NC(C)=O)CSSC[C@@H](C(=O)NCC(N)=O)NC(=O)CNC1=O [BACE032] (Ac-MYCRLLGIGCG-NH2; disulfide 3-10)
IC50 (human BACE1 (rhBACE1) [1]): > 10000 nM

CC[C@H](C)[C@@H]1NC(=O)CNC(=O)[C@H](CC(C)C)NC(=O)[C@H](CC(C)C)NC(=O)[C@H](CCCNC(=N)N)NC(=O)[C@@H](NC(=O)[C@H](Cc2ccc(O)cc2)NC(C)=O)CSSC[C@@H](C(=O)NCC(N)=O)NC(=O)CNC1=O [BACE033] (Ac-YCRLLGIGCG-NH2; disulfide 2-9)
IC50 (human BACE1 (rhBACE1) [1]): > 10000 nM

CC[C@H](C)[C@@H]1NC(=O)CNC(=O)[C@H](CC(C)C)NC(=O)[C@H](CC(C)C)NC(=O)[C@H](CCCNC(=N)N)NC(=O)[C@@H](NC(C)=O)CSSC[C@@H](C(=O)NCC(N)=O)NC(=O)CNC1=O [BACE034] (Ac-CRLLGIGCG-NH2; disulfide 1-8)
IC50 (human BACE1 (rhBACE1) [1]): > 10000 nM

CC[C@H](C)[C@@H]1NC(=O)CNC(=O)[C@H](CC(C)C)NC(=O)[C@H](CC(C)C)NC(=O)[C@H](CCCNC(=N)N)NC(=O)[C@@H](NC(=O)[C@H](Cc2ccc(O)cc2)NC(=O)[C@H](CCSC)NC(=O)[C@H](CO)NC(=O)[C@H](CCC(=O)O)NC(=O)[C@H](CCC(=O)O)NC(=O)[C@H](C)NC(C)=O)CSSC[C@@H](C(=O)NCC(N)=O)NC(=O)CNC1=O [BACE042] (Ac-AEESMYCRLLGIGCG-NH2; disulfide 7-14)
IC50 (human BACE1 (rhBACE1) [2]): 12 ± 8 nM

CC[C@H](C)[C@@H]1NC(=O)CNC(=O)[C@H](CC(C)C)NC(=O)[C@H](CC(C)C)NC(=O)[C@H](CCCNC(=N)N)NC(=O)[C@@H](NC(=O)[C@H](Cc2ccc(O)cc2)NC(=O)[C@H](CCSC)NC(=O)[C@H](CO)NC(=O)[C@H](CCC(=O)O)NC(=O)[C@H](C)NC(=O)[C@H](CC(N)=O)NC(C)=O)CSSC[C@@H](C(=O)NCC(N)=O)NC(=O)CNC1=O [BACE043] (Ac-NAESMYCRLLGIGCG-NH2; disulfide 7-14)
IC50 (human BACE1 (rhBACE1) [2]): 13 ± 2 nM

CC[C@H](C)[C@@H]1NC(=O)CNC(=O)[C@H](CC(C)C)NC(=O)[C@H](CC(C)C)NC(=O)[C@H](C)NC(=O)[C@@H](NC(=O)[C@H](Cc2ccc(O)cc2)NC(=O)[C@H](CCSC)NC(=O)[C@H](CO)NC(=O)[C@H](CCC(=O)O)NC(=O)[C@H](CCC(=O)O)NC(=O)[C@H](CC(N)=O)NC(C)=O)CSSC[C@@H](C(=O)NCC(N)=O)NC(=O)CNC1=O [BACE048] (Ac-NEESMYCALLGIGCG-NH2; disulfide 7-14)
IC50 (human BACE1 (rhBACE1) [1]): > 10000 nM | IC50 (human BACE1 (rhBACE1) [2]): > 10000 nM

CC[C@H](C)[C@@H]1NC(=O)[C@H](C)NC(=O)[C@H](CC(C)C)NC(=O)[C@H](CC(C)C)NC(=O)[C@H](CCCNC(=N)N)NC(=O)[C@@H](NC(=O)[C@H](Cc2ccc(O)cc2)NC(=O)[C@H](CCSC)NC(=O)[C@H](CO)NC(=O)[C@H](CCC(=O)O)NC(=O)[C@H](CCC(=O)O)NC(=O)[C@H](CC(N)=O)NC(C)=O)CSSC[C@@H](C(=O)NCC(N)=O)NC(=O)CNC1=O [BACE051] (Ac-NEESMYCRLLAIGCG-NH2; disulfide 7-14)
IC50 (human BACE1 (rhBACE1) [2]): 18 ± 5 nM

CC[C@H](C)[C@@H]1NC(=O)CNC(=O)[C@H](CC(C)C)NC(=O)[C@H](CC(C)C)NC(=O)[C@H](CCCNC(=N)N)NC(=O)[C@@H](NC(=O)[C@H](Cc2ccc(O)cc2)NC(=O)[C@H](CCSC)NC(=O)[C@H](CO)NC(=O)[C@H](CCC(=O)O)NC(=O)[C@H](CCC(=O)O)NC(=O)[C@H](CC(N)=O)NC(C)=O)CSSC[C@@H](C(=O)NCC(N)=O)NC(=O)[C@H](C)NC1=O [BACE053] (Ac-NEESMYCRLLGIACG-NH2; disulfide 7-14)
IC50 (human BACE1 (rhBACE1) [2]): 7 nM

CC[C@H](C)[C@@H]1NC(=O)CNC(=O)[C@H](CC(C)C)NC(=O)[C@H](CC(C)C)NC(=O)[C@H](CCCNC(=N)N)NC(=O)[C@@H](NC(=O)[C@H](Cc2ccc(O)cc2)NC(=O)[C@H](CCSC)NC(=O)[C@H](CO)NC(=O)[C@H](CCC(=O)O)NC(=O)[C@H](CCC(=O)O)NC(=O)[C@H](CC(N)=O)NC(C)=O)CSSC[C@@H](C(=O)N[C@@H](C)C(N)=O)NC(=O)CNC1=O [BACE054] (Ac-NEESMYCRLLGIGCA-NH2; disulfide 7-14)
IC50 (human BACE1 (rhBACE1) [1]): 12 ± 3 nM | IC50 (human BACE1 (rhBACE1) [2]): 7 ± 4 nM

CC[C@H](C)[C@@H]1NC(=O)CNC(=O)[C@H](CC(C)C)NC(=O)[C@H](CC(C)C)NC(=O)[C@H](CCCNC(=N)N)NC(=O)[C@@H](NC(=O)[C@H](Cc2ccccc2)NC(=O)[C@H](CCSC)NC(=O)[C@H](CO)NC(=O)[C@H](CCC(=O)O)NC(=O)[C@H](CCC(=O)O)NC(=O)[C@H](CC(N)=O)NC(C)=O)CSSC[C@@H](C(=O)NCC(N)=O)NC(=O)CNC1=O [BACE055] (Ac-NEESMFCRLLGIGCG-NH2; disulfide 7-14)
IC50 (human BACE1 (rhBACE1) [2]): 11 ± 2 nM

CC[C@H](C)[C@@H]1NC(=O)CNC(=O)[C@H](CC(C)C)NC(=O)[C@H](CC(C)C)NC(=O)[C@H](CCCNC(=N)N)NC(=O)[C@@H](NC(=O)[C@H](Cc2ccc(O)cc2)NC(=O)[C@H](CCSC)NC(=O)[C@H](Cc2c[nH]cn2)NC(=O)[C@H](CCC(=O)O)NC(=O)[C@H](CCC(=O)O)NC(=O)[C@H](CC(N)=O)NC(C)=O)CSSC[C@@H](C(=O)NCC(N)=O)NC(=O)CNC1=O [BACE056] (Ac-NEEHMYCRLLGIGCG-NH2; disulfide 7-14)
IC50 (human BACE1 (rhBACE1) [2]): 3570 ± 3650 nM

CC[C@H](C)[C@@H]1NC(=O)CNC(=O)[C@H](CC(C)C)NC(=O)[C@H](CC(C)C)NC(=O)[C@H](C)NC(=O)[C@@H](NC(=O)[C@H](Cc2ccc(O)cc2)NC(=O)[C@H](CCSC)NC(=O)[C@H](CO)NC(=O)[C@H](CCC(=O)O)NC(C)=O)CSSC[C@@H](C(=O)NCC(N)=O)NC(=O)CNC1=O [BACE057] (Ac-ESMYCALLGIGCG-NH2; disulfide 5-12)
IC50 (human BACE1 (rhBACE1) [1]): > 10000 nM | IC50 (human BACE1 (rhBACE1) [2]): > 10000 nM

CC[C@H](C)[C@H](NC(=O)[C@H](Cc1ccccc1)NC(=O)[C@H](Cc1ccc(O)cc1)NC(=O)[C@@H]1CCCN1C(=O)[C@H](Cc1ccc(O)cc1)NC(C)=O)C(=O)N1CCC[C@H]1C(=O)N[C@@H](CC(C)C)C(N)=O [BMS4, reference compound]
IC50 (human BACE1 (rhBACE1) [1]): > 10000 nM

Ac-KEESIYSRLMGLGSG-NH2 [BACE025]
IC50 (human BACE1 (rhBACE1) [1]): ≥ 10000 nM | IC50 (human BACE1 (rhBACE1) [2]): ≥ 10000 nM

Ac-PEESLYSRLLALGSG-NH2 [BACE028]
IC50 (human BACE1 (rhBACE1) [1]): > 10000 nM | IC50 (human BACE1 (rhBACE1) [2]): > 10000 nM
